Data: patent US9271946B2, “Use of a RAR antagonist or inverse agonist for the treatment of chemotherapy and/or radiation therapy side effects” (IO Therapeutics, Inc., priority 2006, dated 2016)

Experiments:
[1] = system: CPM-induced leukopenic mice; assay: peripheral and systemic neutrophil recovery in CPM-induced leukopenic mice, spleen and bone marrow (Example 2); type: in vivo, mouse
Description: Leukopenia was induced in male BDF1 mice (C57Bl×DBA2, 7.5-12 weeks) by an intra-peritoneal (i.p.) injection of 200 mg/kg Cyclophosphamide (CPM, Sigma-Aldrich, Saint Louis, Mo.) in 0.2 ml saline. The effect of VTP 194310 on leukocyte recovery was evaluated by oral gavage of animals with 1 mg/kg of VTP 194310 as indicated in the results section. VTP 194310 (dissolved in DMSO) was diluted through peanut oil as the vehicle (dosed at 5 ml/kg). Control mice were given DMSO and vehicle alone. As a positive control, granulocytopoiesis was stimulated in CPM-treated mice by a single sub-cutaneous injection of 10 μg/kg pegylated recombinant methionyl human granulocyte colony-stimulating factor (PEG-r-metHuG-CSF) (Neulasta, Pegfilgrastim; Amgen, Thousand Oaks, Calif.) on day 2. Three separate experiments were performed.
Peripheral blood (60 μl) was collected under anaesthesia from the retroorbital sinus of the mice with heparinized capillary tubes and transferred to EDTA-coated microtainer tubes (Becton Dickinson, Franklin Lakes, N.J.). White cell, neutrophil, and lymphocyte counts were obtained for at least three mice per group by diluting the blood 1:4 with PBS containing 5% bovine serum albumin (Fraction V; Sigma, Saint Louis, Mo.), and by using an Advia 120 Hematology System (Bayer HealthCare Diagnostics Division, Tarrytown, N.Y.).
Immature (Gr-1^low/CD11b^+ve) and mature (Gr-1^+ve/CD11b^+ve) neutrophils were identified in single cells suspensions prepared from spleen and bone marrow (femur) aspirates by double immunostaining using PE- and FITC-conjugated monoclonal antibodies (Pharmingen, San Diego, Calif.). Cells were analysed on a FACS Calibur interfaced with CellQuest Pro software program (Becton Dickinson, San Jose, Calif.).
These mice were gavaged with VTP 194310 on days −1 to 2 in relation to CPM treatment.

S. aureus EMRSA-16 252 = assay: activity against S. aureus, growth on agar and in liquid culture; type: cell-based
Description: (§1) The compound was analyzed at an appropriate concentration in several assays for activity against S. aureus EMRSA-16 252 and S. aureus MSSA 476.

S. aureus MSSA 476 = assay: as above; type: cell-based
Description: as §1

RARβ = target: T1, RARβ (Homo sapiens, UniProt P10826); assay: binding to RARβ
T1 sequence (P10826 1-455): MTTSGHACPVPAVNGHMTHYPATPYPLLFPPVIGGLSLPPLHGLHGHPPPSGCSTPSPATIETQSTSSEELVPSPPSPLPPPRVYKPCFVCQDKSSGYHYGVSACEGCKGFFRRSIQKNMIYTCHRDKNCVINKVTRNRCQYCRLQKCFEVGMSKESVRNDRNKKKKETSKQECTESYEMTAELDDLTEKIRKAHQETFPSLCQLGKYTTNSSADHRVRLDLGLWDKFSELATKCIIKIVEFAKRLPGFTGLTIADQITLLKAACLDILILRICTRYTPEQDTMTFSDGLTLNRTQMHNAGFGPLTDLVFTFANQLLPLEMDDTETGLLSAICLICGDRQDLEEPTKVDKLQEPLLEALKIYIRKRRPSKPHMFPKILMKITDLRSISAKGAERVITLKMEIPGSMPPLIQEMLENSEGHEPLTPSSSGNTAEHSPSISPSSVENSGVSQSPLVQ

[2] = system: CPM-induced neutropenic male BDF1 mice; assay: mono-therapy and combination therapy on neutrophil recovery in CPM-induced neutropenic mice (Example 4); type: in vivo, mouse
Description: VTP 194310 DMSO stock solution was made by weighing out VTP 194310 and dissolved in DMSO (25 mg/1.33 ml DMSO). This stock solution was then mixed with Vehicle (39.2 ml Corn Oil+0.8 ml DMSO).
The 3.0 mg/kg VTP194310 solution was made by mixing 39.2 ml Corn Oil+0.8 ml VTP 194310 DMSO Stock.
The 1.0 mg/kg VTP194310 solution was made by diluting the VTP194310 DMSO Stock 1:3 with DMSO (e.g. 1 ml DMSO+0.5 ml 4310 Stock), and then combining 39.2 ml Corn Oil+0.8 ml of the diluted VTP194310 Stock.
The 1 and 10 μg/kg PEG-G-CSF solutions were made by diluting 6 mg/ml stock with PBS.
Male BDF1 mice (C57Bl×DBA2), 7-8 weeks old, DOB: 1 Jun. 2006) were used in this experiment.
35 μl of blood (via the submandibular vein) were collected according to the scheduled time points or until the full recovery of blood cells and platelets. The blood samples were analyzed after 1:5 dilution with PBS saline containing 2% BSA (Fraction V) and 0.2 mM EDTA on the Hematology Analyzer Cell-DYN 3700 (Abbott Diagnostics).
Each group of mice were treated with vehicle, VTP 194310 at 3 mg/kg, PEG-G-CSF at 1 or 10 μg/kg, and CPM at 150 mg/kg. The mean numbers of total white blood cells (WBC), neutrophils, lymphocytes, red blood cells (RBC) and platelets and standard error (SE) for data obtained for each treated group are shown in FIG. 4. […] Combination treatment with VTP 194310 and PEG-G-CSF further increased recovery.

RARγ = target: T2, RARγ (Homo sapiens, UniProt P13631); assay: binding to RARγ
T2 sequence (P13631 1-454): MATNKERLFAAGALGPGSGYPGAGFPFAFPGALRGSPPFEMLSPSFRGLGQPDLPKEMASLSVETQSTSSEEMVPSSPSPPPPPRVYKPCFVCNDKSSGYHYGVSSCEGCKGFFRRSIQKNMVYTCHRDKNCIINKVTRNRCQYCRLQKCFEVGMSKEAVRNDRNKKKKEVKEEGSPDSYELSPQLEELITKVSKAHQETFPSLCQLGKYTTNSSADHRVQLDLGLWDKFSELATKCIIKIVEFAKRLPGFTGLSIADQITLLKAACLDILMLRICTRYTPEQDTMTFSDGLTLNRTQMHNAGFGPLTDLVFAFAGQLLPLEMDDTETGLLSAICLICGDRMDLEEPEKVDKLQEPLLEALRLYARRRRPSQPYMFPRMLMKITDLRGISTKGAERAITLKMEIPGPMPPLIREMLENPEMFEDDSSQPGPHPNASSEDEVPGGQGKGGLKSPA

[3] = 2 μM incorporated into the agar
[4] = 50 μl of 2 μM in agar-well-diffusion assay

SMILES: CCc1ccc(C2=CC(C)(C)Sc3ccc(C#Cc4ccc(C(=O)O)cc4)cc32)cc1 [VTP 194310, 4-[[4-(4-ethylphenyl)-2,2-dimethyl-(2H)-thiochromen-6-yl]-ethynyl]-benzoic acid]
- absolute number of immature granulocytes (Gr-1low/CD11b+ve) in the spleen ([1]; day 7): 0.93±0.02 ×10^7
- absolute number of Gr-1+ve/CD11b+ve cells in the spleen ([1]; days 6 and 7): significantly increased
- immature granulocytes (Gr-1low/CD11b+ve) in the spleen ([1]; days 6 and 7): elevated
- neutrophil, and lymphocyte counts compared to control recovering mice ([1]; days 6 to 8, gavaged days −1 to 2): significantly elevated
- spleen weight compared to controls ([1]; days 7 and 8, gavaged days −1 to 2): increased
- Gr-1+ve/CD11b+ve cells in the bone marrow ([1]; gavaged days −1 to 2): increased prevalence
- growth rate in liquid culture (S. aureus EMRSA-16 252; 2 μM): neither strain demonstrated any alteration in growth rate
- growth of bacteria on agar (S. aureus EMRSA-16 252; [3]): not inhibited
- growth of bacteria on agar (S. aureus EMRSA-16 252; [4]): not inhibited
- growth rate in liquid culture (S. aureus MSSA 476; 2 μM): neither strain demonstrated any alteration in growth rate
- growth of bacteria on agar (S. aureus MSSA 476; [3]): not inhibited
- growth of bacteria on agar (S. aureus MSSA 476; [4]): not inhibited
- Ki (RARβ): 2 nM
- effectiveness in enhancing neutrophil recovery compared to PEG-G-CSF at 10 μg/kg ([2]; CPM-induced mouse model): similarly effective
- neutrophil recovery relative to control ([2]; monotherapy, CPM 150 mg/kg Day 0, VTP 194310 1 or 3 mg/kg/day oral Days −1 to 1, PEG-G-CSF 1 or 10 μg/kg s.c. Day 2): enhanced neutrophil recovery
- Ki (RARγ): 5 nM
